Measured values published in the NIST ThermoML archive (doi:10.1016/j.jct.2018.11.010).

Assay: xn = mol fraction of the nth substance listed
Details: Liquid, Vibrating tube method

CCCCCCCO [heptan-1-ol] + CCCCOCCCC
mass density [kg/m3]
Details	x2 = 0	x2 = 0.1488	x2 = 0.3201	x2 = 0.4944	x2 = 0.7014	x2 = 0.8534
298.15 K, 100 kPa	818.7	810.1	800.3	790.9	779.5	771.7
298.15 K, 1000 kPa	819.3	810.8	801	791.6	780.2	772.5
298.15 K, 5000 kPa	821.9	813.5	803.9	794.6	783.5	775.8
298.15 K, 10000 kPa	824.9	816.7	807.3	798.3	787.3	779.9
298.15 K, 15000 kPa	828	819.9	810.6	801.8	791	783.7
298.15 K, 20000 kPa	830.8	822.9	813.8	805	794.5	787.4
298.15 K, 25000 kPa	833.5	825.8	816.9	808.3	797.9	790.8
298.15 K, 30000 kPa	836.3	828.6	819.8	811.4	801.1	794.2
298.15 K, 35000 kPa	838.8	831.2	822.6	814.3	804.2	797.4
298.15 K, 40000 kPa	841.3	833.9	825.3	817.1	807.3	800.5
298.15 K, 45000 kPa	843.8	836.5	828	819.9	810.2	803.5
298.15 K, 50000 kPa	846.2	838.9	830.6	822.6	813	806.4
298.15 K, 55000 kPa	848.5	841.3	833.1	825.3	815.7	809.2
298.15 K, 60000 kPa	850.8	843.7	835.5	827.8	818.4	811.9
298.15 K, 65000 kPa	853	845.9	837.9	830.3	820.9	814.6
298.15 K, 70000 kPa	855.2	848.2	840.3	832.7	823.5	817.2
298.15 K, 80000 kPa	859.4	852.6	844.8	837.3	828.3	822.2
298.15 K, 90000 kPa	863.5	856.7	849.1	841.9	833	827
298.15 K, 100000 kPa	867.3	860.7	853.2	846.1	837.4	831.5
298.15 K, 110000 kPa	871.1	864.6	857.2	850.2	841.6	835.8
298.15 K, 120000 kPa	874.6	868.2	861	854	845.6	839.9
298.15 K, 130000 kPa	878.1	871.8	864.6	857.8	849.6	843.9
298.15 K, 140000 kPa	881.5	875.3	868.2	861.4	853.3	847.8
313.15 K, 100 kPa	808	799	788.8	778.9	767	758.8
313.15 K, 1000 kPa	808.6	799.7	789.5	779.7	767.8	759.7
313.15 K, 5000 kPa	811.4	802.6	792.5	783	771.3	763.3
313.15 K, 10000 kPa	814.7	806.1	796.3	786.9	775.6	767.8
313.15 K, 15000 kPa	817.9	809.5	799.8	790.7	779.5	771.9
313.15 K, 20000 kPa	821	812.7	803.3	794.3	783.4	775.9
313.15 K, 25000 kPa	823.8	815.6	806.4	797.5	786.8	779.4
313.15 K, 30000 kPa	826.8	818.8	809.7	801	790.5	783.3
313.15 K, 35000 kPa	829.5	821.6	812.7	804.2	793.7	786.7
313.15 K, 40000 kPa	832.1	824.4	815.5	807.1	796.9	790
313.15 K, 45000 kPa	834.7	827	818.3	810.1	800	793.2
313.15 K, 50000 kPa	837.2	829.7	821.1	812.9	803	796.3
313.15 K, 55000 kPa	839.7	832.3	823.8	815.7	805.9	799.3
313.15 K, 60000 kPa	842.1	834.8	826.4	818.4	808.7	802.2
313.15 K, 65000 kPa	844.4	837.2	828.9	821	811.5	804.9
313.15 K, 70000 kPa	846.7	839.6	831.3	823.5	814.1	807.7
313.15 K, 80000 kPa	851.1	844	836	828.4	819.1	812.9
313.15 K, 90000 kPa	855.3	848.4	840.6	833.2	824	817.9
313.15 K, 100000 kPa	859.3	852.5	844.8	837.5	828.7	822.6
313.15 K, 110000 kPa	863.2	856.6	849.1	841.8	833.2	827.2
313.15 K, 120000 kPa	867	860.4	853	845.9	837.3	831.5
313.15 K, 130000 kPa	870.6	864.2	856.9	849.9	841.4	835.7
313.15 K, 140000 kPa	874.2	867.8	860.6	853.7	845.4	839.8
333.15 K, 100 kPa	793.3	783.8	772.9	762.5	749.9	741.3
333.15 K, 1000 kPa	794	784.6	773.7	763.4	750.8	742.3
333.15 K, 5000 kPa	797.1	787.8	777.2	767.1	754.8	746.5
333.15 K, 10000 kPa	800.7	791.7	781.4	771.5	759.6	751.4
333.15 K, 15000 kPa	804.3	795.4	785.3	775.8	764.1	756.1
333.15 K, 20000 kPa	807.7	798.9	789.1	779.6	768.3	760.5
333.15 K, 25000 kPa	810.8	802.3	792.6	783.4	772.2	764.7
333.15 K, 30000 kPa	813.9	805.5	796	787	776.1	768.6
333.15 K, 35000 kPa	816.9	808.7	799.3	790.4	779.7	772.4
333.15 K, 40000 kPa	819.8	811.7	802.5	793.7	783.2	776.1
333.15 K, 45000 kPa	822.4	814.5	805.5	796.9	786.5	779.5
333.15 K, 50000 kPa	825.2	817.4	808.5	800	789.8	782.9
333.15 K, 55000 kPa	827.8	820.1	811.3	802.9	792.9	786
333.15 K, 60000 kPa	830.3	822.7	814.1	805.8	795.9	789.2
333.15 K, 65000 kPa	832.9	825.3	816.8	808.6	798.9	792.2
333.15 K, 70000 kPa	835.3	827.9	819.5	811.4	801.7	795.1
333.15 K, 80000 kPa	839.9	832.7	824.4	816.6	807.1	800.7
333.15 K, 90000 kPa	844.5	837.4	829.3	821.6	812.3	806
333.15 K, 100000 kPa	848.7	841.7	833.8	826.3	817.2	811.1
333.15 K, 110000 kPa	852.8	845.9	838.2	830.8	821.9	815.9
333.15 K, 120000 kPa	856.8	850	842.3	835.1	826.4	820.5
333.15 K, 130000 kPa	860.5	853.9	846.4	839.3	830.7	824.8
333.15 K, 140000 kPa	864.3	–	–	–	–	–
